Reference: patent publication US11178873B2, “Cyclic N-carboxamide compounds useful as herbicides” (FMC CORPORATION, priority 2015, dated 2021)

Experiments:
Assay type in all cases: in vivo
[1] = tested on: crabgrass, large (large crabgrass, Digitaria sanguinalis); assay: Test A postemergence, crabgrass, large; settings: 1000 g ai/ha, 0 to 100 scale, 0 no effect, 100 complete control
Text: (§1) Seeds of plant species selected from barnyardgrass (Echinochloa crus-galli), crabgrass, large (large crabgrass, Digitaria sanguinalis), kochia (Kochia scoparia), ragweed (common ragweed, Ambrosia elatior), morningglory (Ipomoea spp.), velvetleaf (Abutilon theophrasti), ryegrass, Italian (Italian ryegrass, Lolium multiflorum), foxtail, giant (giant foxtail, Setaria faberii), wheat (Triticum aestivum), corn (Zea mays), and pigweed (Amaranthus retroflexus), were planted into a blend of loam soil and sand and treated preemergence with a directed soil spray using test chemicals formulated in a non-phytotoxic solvent mixture which included a surfactant. At the same time, plants selected from these crop and weed species and also blackgrass (Alopecurus myosuroides), and galium (catchweed bedstraw, Galium aparine), were planted in pots containing the same blend of loam soil and sand and treated with postemergence applications of test chemicals formulated in the same manner. Plants ranged in height from 2 to 10 cm and were in the one- to two-leaf stage for the postemergence treatment. Treated plants and untreated controls were maintained in a greenhouse for approximately 10 d, after which time all treated plants were compared to untreated controls and visually evaluated for injury. Plant response ratings, summarized in Table A, are based on a 0 to 100 scale where 0 is no effect and 100 is complete control. A dash (-) response means no test result.

[2] = tested on: velvetleaf (Abutilon theophrasti); assay: Test A preemergence, velvetleaf; settings: 1000 g ai/ha, 0 to 100 scale, 0 no effect, 100 complete control
Text: as §1

[3] = tested on: foxtail, giant (giant foxtail, Setaria faberii); assay: Test A preemergence, foxtail, giant; settings: 0 to 100 scale, 0 no effect, 100 complete control
Procedure, shortened: (§2)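 Seeds sown in loam soil–sand blend received a directed preemergence soil spray of test chemical in non-phytotoxic solvent with surfactant; postemergence sprays went onto plants 2 to 10 cm tall at one- to two-leaf stage. After about 10 d in greenhouse, injury was rated visually against untreated controls, 0 (no effect) to 100 (complete control).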

corn (Zea mays) [4] = assay: Test A postemergence, corn; settings: 0 to 100 scale, 0 no effect, 100 complete control
Procedure, shortened: as §2

[5] = tested on: velvetleaf (Abutilon theophrasti); assay: Test A postemergence, velvetleaf; settings: 1000 g ai/ha, 0 to 100 scale, 0 no effect, 100 complete control
Text: as §1

[6] = tested on: crabgrass, large (large crabgrass, Digitaria sanguinalis); assay: Test A preemergence, crabgrass, large; settings: 1000 g ai/ha, 0 to 100 scale, 0 no effect, 100 complete control
Text: as §1

[7] = tested on: wheat (Triticum aestivum); assay: Test A preemergence, wheat; settings: 1000 g ai/ha, 0 to 100 scale, 0 no effect, 100 complete control
Text: as §1

[8] = tested on: barnyardgrass (Echinochloa crus-galli); assay: Test A postemergence, barnyardgrass; settings: 0 to 100 scale, 0 no effect, 100 complete control
Procedure, shortened: as §2

[9] = tested on: pigweed (Amaranthus retroflexus); assay: Test A preemergence, pigweed; settings: 0 to 100 scale, 0 no effect, 100 complete control
Procedure, shortened: as §2

[10] = tested on: pigweed (Amaranthus retroflexus); assay: Test A postemergence, pigweed; settings: 0 to 100 scale, 0 no effect, 100 complete control
Procedure, shortened: as §2

[11] = tested on: wheat (Triticum aestivum); assay: Test A postemergence, wheat; settings: 0 to 100 scale, 0 no effect, 100 complete control
Procedure, shortened: as §2

[12] = tested on: morningglory (Ipomoea spp.); assay: Test A postemergence, morningglory; settings: 1000 g ai/ha, 0 to 100 scale, 0 no effect, 100 complete control
Text: as §1

[13] = tested on: morningglory (Ipomoea spp.); assay: Test A preemergence, morningglory; settings: 1000 g ai/ha, 0 to 100 scale, 0 no effect, 100 complete control
Text: as §1

corn (Zea mays) [14] = assay: Test A preemergence, corn; settings: 1000 g ai/ha, 0 to 100 scale, 0 no effect, 100 complete control
Text: as §1

[15] = tested on: barnyardgrass (Echinochloa crus-galli); assay: Test A preemergence, barnyardgrass; settings: 0 to 100 scale, 0 no effect, 100 complete control
Procedure, shortened: as §2

[16] = tested on: foxtail, giant (giant foxtail, Setaria faberii); assay: Test A postemergence, foxtail, giant; settings: 0 to 100 scale, 0 no effect, 100 complete control
Procedure, shortened: as §2

rice (Oryza sativa) = assay: Test B flooded paddy test, rice; settings: Flood, 250 g ai/ha; scale 0 to 100 (0 no effect, 100 complete control); 13 to 15 d
Procedure, shortened: (§3)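 Ratings use a 0-100 visual scale, where 100 is complete control, and compare treated plants with controls after 13 to 15 d of greenhouse growth. Compound went straight into paddy water kept 3 cm over the soil surface, applied to seedlings at the 2-leaf stage.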

[17] = tested on: ryegrass, Italian (Italian ryegrass, Lolium multiflorum); assay: Test A postemergence, ryegrass, Italian; settings: 0 to 100 scale, 0 no effect, 100 complete control
Procedure, shortened: as §2

[18] = tested on: ragweed (common ragweed, Ambrosia elatior); assay: Test A preemergence, ragweed; settings: 0 to 100 scale, 0 no effect, 100 complete control
Procedure, shortened: as §2

[19] = tested on: sedge, umbrella (small-flower umbrella sedge, Cyperus difformis); assay: Test B flooded paddy test, sedge, umbrella; settings: Flood, 250 g ai/ha; scale 0 to 100 (0 no effect, 100 complete control); 13 to 15 d
Procedure, shortened: as §3

kochia (Kochia scoparia) [20] = assay: Test A preemergence, kochia; settings: 0 to 100 scale, 0 no effect, 100 complete control
Procedure, shortened: as §2

[21] = tested on: ryegrass, Italian (Italian ryegrass, Lolium multiflorum); assay: Test A preemergence, ryegrass, Italian; settings: 0 to 100 scale, 0 no effect, 100 complete control
Procedure, shortened: as §2

[22] = tested on: galium (catchweed bedstraw, Galium aparine); assay: Test A postemergence, galium; settings: 0 to 100 scale, 0 no effect, 100 complete control
Procedure, shortened: as §2

[23] = tested on: barnyardgrass (Echinochloa crus-galli); assay: Test B flooded paddy test, barnyardgrass; settings: Flood, 250 g ai/ha; scale 0 to 100 (0 no effect, 100 complete control); 13 to 15 d
Procedure, shortened: as §3

kochia (Kochia scoparia) [24] = assay: Test A postemergence, kochia; settings: 0 to 100 scale, 0 no effect, 100 complete control
Procedure, shortened: as §2

[25] = tested on: ragweed (common ragweed, Ambrosia elatior); assay: Test A postemergence, ragweed; settings: 0 to 100 scale, 0 no effect, 100 complete control
Procedure, shortened: as §2

[26] = tested on: blackgrass (Alopecurus myosuroides); assay: Test A postemergence, blackgrass; settings: 0 to 100 scale, 0 no effect, 100 complete control
Procedure, shortened: as §2

[27] = tested on: ducksalad (Heteranthera limosa); assay: Test B flooded paddy test, ducksalad; settings: Flood, 250 g ai/ha; scale 0 to 100 (0 no effect, 100 complete control); 13 to 15 d
Procedure, shortened: as §3

Structure (SMILES): O=C1NCC(c2ccccc2)N1C(=O)Nc1ccccc1 (stereo not shown) [Compound 6]
- Plant response rating, Crabgrass, Large [1]: 0
- Plant response rating, Velvetleaf [2]: 0
- Plant response rating, Foxtail, Giant ([3]; 1000 g ai/ha): 0
- Plant response rating, Corn (corn (Zea mays) [4]; 1000 g ai/ha): 0
- Plant response rating, Velvetleaf [5]: 0
- Plant response rating, Crabgrass, Large [6]: 50
- Plant response rating, Wheat [7]: 0
- Plant response rating, Barnyardgrass ([8]; 1000 g ai/ha): 0
- Plant response rating, Pigweed ([9]; 1000 g ai/ha): 0
- Plant response rating, Pigweed ([10]; 1000 g ai/ha): 0
- Plant response rating, Wheat ([11]; 1000 g ai/ha): 0
- Plant response rating, Morningglory [12]: 0
- Plant response rating, Morningglory [13]: 0
- Plant response rating, Corn (corn (Zea mays) [14]): 0
- Plant response rating, Barnyardgrass ([15]; 1000 g ai/ha): 0
- Plant response rating, Foxtail, Giant ([16]; 1000 g ai/ha): 0

Structure (SMILES): O=C1CCC(c2ccc(Cl)cc2)N1C(=O)Nc1ccc(F)c(F)c1F (stereo not shown) [Compound 22]
- Plant response rating, Foxtail, Giant ([3]; 31 g ai/ha): 0
- Plant response rating, Foxtail, Giant ([3]; 125 g ai/ha): 0
- Plant response rating, Rice (rice (Oryza sativa)): 0
- Plant response rating, Corn (corn (Zea mays) [4]; 31 g ai/ha): 0
- Plant response rating, Corn (corn (Zea mays) [4]; 125 g ai/ha): 0
- Plant response rating, Ryegrass, Italian ([17]; 31 g ai/ha): 0
- Plant response rating, Ryegrass, Italian ([17]; 125 g ai/ha): 0
- Plant response rating, Ragweed ([18]; 31 g ai/ha): 0
- Plant response rating, Ragweed ([18]; 125 g ai/ha): 0
- Plant response rating, Sedge, Umbrella [19]: 0
- Plant response rating, Barnyardgrass ([8]; 31 g ai/ha): 0
- Plant response rating, Barnyardgrass ([8]; 125 g ai/ha): 0
- Plant response rating, Pigweed ([9]; 31 g ai/ha): 0
- Plant response rating, Pigweed ([9]; 125 g ai/ha): 0
- Plant response rating, Pigweed ([10]; 31 g ai/ha): 0
- Plant response rating, Pigweed ([10]; 125 g ai/ha): 0
- Plant response rating, Kochia (kochia (Kochia scoparia) [20]; 31 g ai/ha): 0
- Plant response rating, Kochia (kochia (Kochia scoparia) [20]; 125 g ai/ha): 0
- Plant response rating, Ryegrass, Italian ([21]; 31 g ai/ha): 0
- Plant response rating, Ryegrass, Italian ([21]; 125 g ai/ha): 0
- Plant response rating, Galium ([22]; 31 g ai/ha): 0
- Plant response rating, Galium ([22]; 125 g ai/ha): 0
- Plant response rating, Wheat ([11]; 31 g ai/ha): 0
- Plant response rating, Wheat ([11]; 125 g ai/ha): 0
- Plant response rating, Barnyardgrass [23]: 0
- Plant response rating, Kochia (kochia (Kochia scoparia) [24]; 31 g ai/ha): 0
- Plant response rating, Kochia (kochia (Kochia scoparia) [24]; 125 g ai/ha): 0
- Plant response rating, Ragweed ([25]; 31 g ai/ha): 0
- Plant response rating, Ragweed ([25]; 125 g ai/ha): 0
- Plant response rating, Barnyardgrass ([15]; 31 g ai/ha): 0
- Plant response rating, Barnyardgrass ([15]; 125 g ai/ha): 0
- Plant response rating, Blackgrass ([26]; 31 g ai/ha): 0
- Plant response rating, Blackgrass ([26]; 125 g ai/ha): 0
- Plant response rating, Foxtail, Giant ([16]; 31 g ai/ha): 0
- Plant response rating, Foxtail, Giant ([16]; 125 g ai/ha): 0
- Plant response rating, Ducksalad [27]: 0

Structure (SMILES): O=C1CCC(c2ccc(Cl)cc2)N1C(=O)Nc1ccccc1C(F)(F)F (stereo not shown) [Compound 23]
- Plant response rating, Foxtail, Giant ([3]; 31 g ai/ha): 0
- Plant response rating, Foxtail, Giant ([3]; 125 g ai/ha): 0
- Plant response rating, Rice (rice (Oryza sativa)): 0
- Plant response rating, Corn (corn (Zea mays) [4]; 31 g ai/ha): 0
- Plant response rating, Corn (corn (Zea mays) [4]; 125 g ai/ha): 0
- Plant response rating, Ryegrass, Italian ([17]; 31 g ai/ha): 0
- Plant response rating, Ryegrass, Italian ([17]; 125 g ai/ha): 0
- Plant response rating, Ragweed ([18]; 31 g ai/ha): 0
- Plant response rating, Ragweed ([18]; 125 g ai/ha): 0
- Plant response rating, Sedge, Umbrella [19]: 0
- Plant response rating, Barnyardgrass ([8]; 31 g ai/ha): 0
- Plant response rating, Barnyardgrass ([8]; 125 g ai/ha): 0
- Plant response rating, Pigweed ([9]; 31 g ai/ha): 0
- Plant response rating, Pigweed ([9]; 125 g ai/ha): 0
- Plant response rating, Pigweed ([10]; 31 g ai/ha): 0
- Plant response rating, Pigweed ([10]; 125 g ai/ha): 0
- Plant response rating, Kochia (kochia (Kochia scoparia) [20]; 31 g ai/ha): 0
- Plant response rating, Kochia (kochia (Kochia scoparia) [20]; 125 g ai/ha): 0
- Plant response rating, Ryegrass, Italian ([21]; 31 g ai/ha): 0
- Plant response rating, Ryegrass, Italian ([21]; 125 g ai/ha): 0
- Plant response rating, Galium ([22]; 31 g ai/ha): 0
- Plant response rating, Galium ([22]; 125 g ai/ha): 0
- Plant response rating, Wheat ([11]; 31 g ai/ha): 0
- Plant response rating, Wheat ([11]; 125 g ai/ha): 0
- Plant response rating, Barnyardgrass [23]: 0
- Plant response rating, Kochia (kochia (Kochia scoparia) [24]; 31 g ai/ha): 0
- Plant response rating, Kochia (kochia (Kochia scoparia) [24]; 125 g ai/ha): 0
- Plant response rating, Ragweed ([25]; 31 g ai/ha): 0
- Plant response rating, Ragweed ([25]; 125 g ai/ha): 0
- Plant response rating, Barnyardgrass ([15]; 31 g ai/ha): 0
- Plant response rating, Barnyardgrass ([15]; 125 g ai/ha): 0
- Plant response rating, Blackgrass ([26]; 31 g ai/ha): 0
- Plant response rating, Blackgrass ([26]; 125 g ai/ha): 0
- Plant response rating, Foxtail, Giant ([16]; 31 g ai/ha): 0
- Plant response rating, Foxtail, Giant ([16]; 125 g ai/ha): 0
- Plant response rating, Ducksalad [27]: 0
